Measurements: patent US9302999B2, “Substituted triazoles as herbicides” (E. I. DU PONT DE NEMOURS AND COMPANY, priority 2012, dated 2016)

Key:
[1] = tested on: Oilseed Rape; experiment: Test C pre-/postemergence: oilseed rape; assay type: in vivo
[2] = tested on: Waterhemp; experiment: Test C postemergence: waterhemp; assay type: in vivo
Procedure, shortened: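 Plants at the 1- to 4-leaf stage (2 to 18 cm tall), grown in pots of peat moss/vermiculite planting medium, received postemergence applications of the formulated test chemicals. After 13 to 15 days in a greenhouse, injury was scored visually versus controls from 0 (no effect) to 100 (complete control).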

[3] = tested on: Oilseed Rape; experiment: Test C postemergence: oilseed rape; assay type: in vivo
Excerpt: (§1) At the same time, plants selected from these crop and weed species and also barley (winter barley, Hordeum vulgare), canarygrass (Phalaris minor), chickweed (common chickweed, Stellaria media) windgrass (Apera spica-venti) and deadnettle (henbit deadnettle, Lamium amplexicaule) were planted in pots containing Redi-Earth® planting medium (Scotts Company, 14111 Scottslawn Road, Marysville, Ohio 43041) comprising spaghnum peat moss, vermiculite, wetting agent and starter nutrients and treated with postemergence applications of test chemicals formulated in the same manner. Plants ranged in height from 2 to 18 cm (1- to 4-leaf stage) for postemergence treatments.
(§2) Treated plants and controls were maintained in a greenhouse for 13 to 15 days, after which time all species were compared to controls and visually evaluated. Plant response ratings, summarized in Table C, are based on a scale of 0 to 100 where 0 is no effect and 100 is complete control. A dash (-) response means no test result.

[4] = tested on: Waterhemp; experiment: Test C pre-/postemergence: waterhemp; assay type: in vivo
Excerpt: (§3) Seeds of plant species selected from blackgrass (Alopecurus myosuroides), bromegrass, downy (downy bromegrass, Bromus tectorum), foxtail, green (green foxtail, Setaria viridis), ryegrass, Italian (Italian ryegrass, Lolium multiflorum), winter wheat (Triticum aestivum), wild oat (Avena fatua), galium (catchweed bedstraw, Galium aparine), bermudagrass (Cynodon dactylon), surinam grass (Brachiaria decumbens), cocklebur (common cocklebur, Xanthium strumarium), corn (Zea mays), large crabgrass (Digitaria sanguinalis), woolly cupgrass (Eriochloa villosa), foxtail, giant (giant foxtail, Setaria faberii), goosegrass (Eleusine indica), johnsongrass (Sorghum halepense), kochia (Kochia scoparia), lambsquarters (Chenopodium album), morningglory (Ipomoea coccinea), nightshade (eastern black nightshade, Solanum ptycanthum), nutsedge, yellow (yellow nutsedge, Cyperus esculentus), pigweed (Amaranthus retroflexus), ragweed (common ragweed, Ambrosia elation), soybean (Glycine max), common (oilseed) sunflower (Helianthus annuus), Russian thistle (Salsola kali) and velvetleaf (Abutilon theophrasti) were planted into a blend of loam soil and sand and treated preemergence with test chemicals formulated in a non-phytotoxic solvent mixture which included a surfactant.
as §1, §2

[5] = tested on: Oilseed Rape; experiment: Test C preemergence: oilseed rape; assay type: in vivo, Brassica napus; conditions: 125 g ai/ha, scale 0 to 100, 0 no effect, 100 complete control
[6] = tested on: barnyardgrass (Echinochloa crus-galli); experiment: Test C pre-/postemergence: barnyardgrass; assay type: in vivo; conditions: scale 0 to 100, 0 no effect, 100 complete control
[7] = tested on: Waterhemp; experiment: Test C postemergence: waterhemp; assay type: in vivo, Amaranthus rudis
Excerpt: as §3, §1, §2

[8] = tested on: Barnyardgrass; experiment: Test C postemergence: barnyardgrass; assay type: in vivo, Echinochloa crus-galli; conditions: 125 g ai/ha, scale 0 to 100, 0 no effect, 100 complete control
Excerpt: as §3, §1, §2

[9] = tested on: Oilseed Rape; experiment: Test C preemergence: oilseed rape; assay type: in vivo; conditions: scale of 0 to 100, 0 is no effect, 100 is complete control
Excerpt: as §3, §2

[10] = tested on: Barnyardgrass; experiment: Test C preemergence: barnyardgrass; assay type: in vivo, Echinochloa crus-galli
[11] = Preemergence, 250 g ai/ha, scale 0 to 100, 0 no effect, 100 complete control
[12] = 31 g ai/ha, scale 0 to 100 (0 no effect, 100 complete control)
[13] = 62 g ai/ha, scale 0 to 100 (0 no effect, 100 complete control)
[14] = 125 g ai/ha, scale 0 to 100, 0 no effect, 100 complete control
[15] = 31 g ai/ha, scale of 0 to 100, 0 is no effect, 100 is complete control
[16] = 62 g ai/ha, scale of 0 to 100, 0 is no effect, 100 is complete control
[17] = Postemergence, 16 g ai/ha, scale 0 to 100, 0 no effect, 100 complete control
[18] = Postemergence, 31 g ai/ha, scale 0 to 100 (0 no effect, 100 complete control)
[19] = 250 g ai/ha, scale 0 to 100 (0 no effect, 100 complete control)
[20] = 31 g ai/ha, scale 0 (no effect) to 100 (complete control)

Structure (SMILES)	Plant response rating, Oilseed Rape [1, 11]	Plant response rating, Waterhemp [2, 12]	Plant response rating, Waterhemp [2, 13]	Plant response rating, Oilseed Rape [3, 12]	Plant response rating, Oilseed Rape [3, 13]	Plant response rating, Oilseed Rape [5]	Plant response rating, Barnyardgrass ([6]; Preemergence, 250 g ai/ha)	Plant response rating, Waterhemp [7, 14]	Plant response rating, Barnyardgrass [8]	Plant response rating, Oilseed Rape ([9]; 31 g ai/ha)	Plant response rating, Oilseed Rape ([9]; 62 g ai/ha)	Plant response rating, Barnyardgrass [10, 15]	Plant response rating, Barnyardgrass [10, 16]	Plant response rating, Barnyardgrass [10, 14]	Plant response rating, Oilseed Rape [1, 18]	Plant response rating, Waterhemp [4, 18]	Plant response rating, Waterhemp [7, 19]	Plant response rating, Barnyardgrass [10, 20]	other results
CCc1nn(-c2ccc(F)cc2)nc1Cc1ccnc(C(F)(F)F)c1 [Compound 154]	100	90	98	80	90	90	100	98	25	5	90	45	90	90					Plant response rating, Waterhemp ([2]; 250 g ai/ha, scale 0 to 100): 98; Plant response rating, Oilseed Rape ([3]; 250 g ai/ha, scale 0 to 100): 95; Plant response rating, Waterhemp [4, 11]: 100
CCc1nn(-c2ccc(C(F)(F)F)cc2)nc1Cc1ccnc(C(F)(F)F)c1 [Compound 155]	100	98	98	90	90	90	100	98	55	50	90	40	90	98					Plant response rating, Waterhemp ([2]; 250 g ai/ha, scale 0 to 100): 98; Plant response rating, Oilseed Rape ([3]; 250 g ai/ha, scale 0 to 100): 95; Plant response rating, Waterhemp [4, 11]: 100
Cc1nn(-c2ccc(F)c(C(F)(F)F)c2)nc1Cc1ccnc(C(F)(F)F)c1 [Compound 156]	98	98	98	80	90	90	100	98	40	10	60	85	90	90					Plant response rating, Waterhemp ([2]; 250 g ai/ha, scale 0 to 100): 98; Plant response rating, Oilseed Rape ([3]; 250 g ai/ha, scale 0 to 100): 95; Plant response rating, Waterhemp [4, 11]: 100
FCc1nn(-c2ccc(F)cc2)nc1Oc1ccnc(C(F)(F)F)c1 [Compound 160]		95	98	95	95	80		98	35	5	80	35	90	100					Plant response rating, Oilseed Rape [1, 17]: 85; Plant response rating, Waterhemp [4, 17]: 95; Plant response rating, Barnyardgrass ([6]; Postemergence, 16 g ai/ha): 15; Plant response rating, Barnyardgrass ([10]; 16 g ai/ha, scale 0 (no effect) to 100 (complete control)): 5
CCCc1nn(-c2ccc(F)cc2)nc1Oc1ccnc(C(F)(F)F)c1 [Compound 168]	100		90		70	100	100	95	90		100		100	100	40	80	95	75	
CCc1nn(-c2ccc(C(F)(F)F)cc2)nc1Oc1ccnc(C(F)(F)F)c1 [Compound 169]	100		80		40	100	100	80	75		98		80	98	30	75	95	40	
CCCc1nn(-c2ccc(C(F)(F)F)cc2)nc1Oc1ccnc(C(F)(F)F)c1 [Compound 170]	100		98		50	100	100	98	85		95		98	100	30	85	100	80	
CCc1nn(-c2ccc(F)c(F)c2)nc1Oc1ccnc(C(F)(F)F)c1 [Compound 171]	90		75		20	50	98	75	60		50		75	95	5	70	98	5	
CCCc1nn(-c2ccc(F)c(F)c2)nc1Oc1ccnc(C(F)(F)F)c1 [Compound 172]	100		95		90	98	100	98	85		90		98	100	50	90	98	85	
CCCc1nn(-c2ccc(F)cc2F)nc1Oc1ccnc(C(F)(F)F)c1 [Compound 179]	100		90		40	100	100	95	65		98		100	100	30	80	95	40	
CCc1nn(-c2ccc(C(F)(F)F)c(F)c2)nc1Oc1ccnc(C(F)(F)F)c1 [Compound 183]	100		100		25	100	100	100	80		80		95	100	20	85	100	40	
